Source: patent EP0876142B1, “TOPICAL DELIVERY OF DRUGS TO THE LOWER GASTROINTESTINAL TRACT” (Advanced Polymer Systems, Inc., priority 1996, dated 1997)

Experiment: In vitro release of hydrocortisone (modified USP dissolution apparatus)
Format: physicochemical
Details: after the first two hours
Procedure: The radioactively labelled hydrocortisone was entrapped in two steps using a 5% ethanolic solution at each step. Release of entrapped hydrocortisone at pH 7.5 was measured using a modified USP dissolution apparatus with a basket of 5 µm mesh and a stirring speed of 150 rpm. Sixty percent of the entrapped hydrocortisone was released in the first two hours with a further 15% released over the next six hours. The dissolution rate of free radioactively labelled hydrocortisone was also measured.

Q: For `C[C@]12CCC(=O)C=C1CC[C@@H]1[C@@H]2[C@@H](O)C[C@@]2(C)[C@H]1CC[C@]2(O)C(=O)CO` [free hydrocortisone, hydrocortisone], which total dissolution is on record?
A: Its total dissolution is “total dissolution occurred in another six hours”.
